Measurements: patent US10689344B2, “Biphenylamide derivative Hsp90 inhibitors” (University of Kansas, priority 2013, dated 2020)

Columns and labels:
SKBr3 cells = details: cited from earlier work
SKME128 (Melanoma) = assay: Activity of compounds in cancer cell lines, SKME128; format: cell-based; details: Table 12, SKME128 (Melanoma)
Experimental: Cells were maintained in a 1:1 mixture of Advanced DMEM/F12 (Gibco) supplemented with non-essential amino acids, L-glutamine (2 mM), streptomycin (500 μg/mL), penicillin (100 units/mL), and 10% FBS. Cells were grown to confluence in a humidified atmosphere (37° C., 5% CO2), seeded (2000/well, 100 μL) in 96-well plates, and allowed to attach overnight. Compound at varying concentrations in DMSO (1% DMSO final concentration) was added, and cells were returned to the incubator for 72 h. At 72 h, the number of viable cells was determined using an MTS/PMS cell proliferation kit (Promega) per the manufacturer's instructions. Cells incubated in 1% DMSO were used at 100% proliferation, and values were adjusted accordingly. IC50 values were calculated from separate experiments performed in triplicate using GraphPad Prism.

Compound: CO[C@@H]1[C@@H](OC(N)=O)[C@@H](O)[C@H](Oc2ccc3c(O)c(NC(=O)c4ccc(O)c(CC=C(C)C)c4)c(=O)oc3c2C)OC1(C)C [Novobiocin]
- efficiency as Hsp90 C-terminal inhibitor (SKBr3 cells): ~700 µM

Compound: CN1CCC(Oc2ccc(-c3ccc(NC(=O)c4ccc(C(C)(C)C)cc4)cc3)cc2)CC1 [drawing 163]
- IC50 (SKME128 (Melanoma)): 0.48 µM
